From publication PMC5812454 (Nanomedicine : nanotechnology, biology, and medicine, 2016)
pKd: −log10 of the molar value. One block for each compound: values may come before it. Where a SMILES comes first, the peptide text is derived from it. Bridges are numbered along the chain shown (N, C = ends). {NH2} = amine

Experiments:
[1] = ref [8]; cited from earlier work
[2] = system: HER2-positive breast cancer; conditions: cited from earlier work
[3] = target: T1, Recombinant human HER2 (Thr 23 – Thr 652) fused to IgG1 Fc Tag (Homo sapiens, UniProt P04626); assay: SPR binding to immobilized HER2
[4] = target: T1, Recombinant human HER2 (Thr 23 – Thr 652) fused to IgG1 Fc Tag; assay: SPR

pKd [3]: 6.28 | koff ([3]; pH 9.5): 0.00042 s⁻¹
Compound: CSCC[C@H](NC(=O)[C@H](Cc1ccc(O)cc1)NC(=O)[C@@H]1CSSC[C@H](NC(=O)[C@@H](N)Cc2ccc(O)cc2)C(=O)N[C@@H](CC(=O)O)C(=O)NCC(=O)N[C@@H](Cc2ccccc2)C(=O)N[C@@H](Cc2ccc(O)cc2)C(=O)N[C@@H](C)C(=O)N1)C(=O)N[C@@H](CC(=O)O)C(=O)N[C@H](C(N)=O)C(C)C [AHNP] (H-YCDGFYACYMDV-NH2; disulfide 2-8)
water solubility (in words) [1]: poorly water soluble | tumor growth inhibition (in words) ([2]; free AHNP, dose of 4 mg/kg, ref [12]): only a modest degree of inhibition

koff [4]: 0.00042 s⁻¹
Compound: AHNP, anti-HER2/neu peptide, 12 amino acid exocyclic mimetic peptide (analogue 3)

Compound: AON: HER2-mRNA annealing Morpholino AON 5′-CATGGTGCTCACTGCGGCTCCGGC-NH2-3′ (all phosphorodiamidate morpholino (PMO), 3' {NH2})
tumor growth inhibition ([2]; AON in the absence of HER2 targeting, 2.5 mg/kg, ref [4]): 30–40%

pKd [4]: 5.34 | koff [4]: 0.00054 s⁻¹ | kon [4]: 118 M⁻¹ s⁻¹
Compound: starPEG(PEG200-AHNP)2
